The nature of data set [1]: Solubility studies of Maropitant in solvents and solubility enhancers (visual inspection). It counts as physicochemical. The procedure: The following solubility studies were performed with Maropitant drug substance in various solvents and solubility enhancers. […] During solubility studies, the API was solubilized stepwise, in a series of permitted solvent (or a combination of solvent) with and without solubility enhancer. The solvent system was based on methanol, ethanol, isopropyl alcohol (IPA), acetone, methyl ethyl ketone (MEK), and water. Solubility enhancers included Maiscine CC (MGO) (HLB 1), medium chain triglyceride (MCT) oil (HLB 1), Labrafil 1944 cs (HLB 9), Labrafil 2125CS (HLB 9), Glycerine, Tween 20 (HLB 16,7), PEG 300, Propylene glycol, SLS (HLB 40). The resulting mixture was visually inspected to evaluate solubilization. The main equipment used were glass bottles, magnetic stir bars, stirrer plate, and sonicator.

Data set [2] in a line: Permeability of Maropitant through artificial membranes, Franz cell model. It is filed as in vitro ADME. The procedure:
Numerous experiments were performed to improve the permeability of Maropitant through artificial membranes using the Franz cell model. Initially, solutions and suspensions of Maropitant and different acids at different ratios were prepared.
Based on the results obtained with the solution/suspension of Maropitant at different pH, Maropitant oral films with and without citric acid were prepared.

The conditions of data set [3]: cited from earlier work.

Molecules are shown by their SMILES.

Take `COc1ccc(C(C)(C)C)cc1CN[C@H]1C2CCN(CC2)[C@H]1C(c1ccccc1)c1ccccc1` [Maropitant]: the Solubility entry was “Up to 30 mg/1 g of solvent” in data set [1] (Test 1, media Methanol); “Up to 15 mg/1 g of solvent” in data set [1] (Test 2, media Ethanol); “insoluble” in data set [1] (Test 3, media Isopropanol); “Up to 120 mg/1 g of solvent” in data set [1] (Test 4, media Acetone); “Up to 150 mg/1 g of solvent” in data set [1] (Test 5, media MEK); “Up to 180 mg/1 g of solvent” in data set [1] (Test 6, MEK:Maiscine CC 40:2). Further, the Solubility result in data set [1] (Test 7, MEK:Maiscine CC 40:3) is “Up to 220 mg/1 g of solvent”; in data set [1] (Test 8, MEK:MCT 40:2) it was “Up to 220 mg/1 g of solvent”; in data set [1] (Test 9, MEK:MCT 40:3), “Up to 240 mg/1 g of solvent”; in data set [1] (Test 10, MEK:PEG 300 40:2), “Up to 180 mg/1 g of solvent”; in data set [1] (Test 11, MEK:MCT:PEG 300 40:3:2), “Up to 240 mg/1 g of solvent”; in data set [1] (Test 12, MEK:Labrafil 1944CS 40:2), “Up to 220 mg/1 g of solvent”. The Solubility entry in data set [1] (Test 13, MEK:Labrafil 1944CS:MCT 40:3:2) was “Up to 220 mg/1 g of solvent”; in data set [1] (Test 14, MEK:Labrafil 1944CS:PEG 300 40:3:2) it was “Up to 220 mg/1 g of solvent”; in data set [1] (Test 15, MEK:Glycerine 40:2), “Up to 135 mg/1 g of solvent”; in data set [1] (Test 16, MEK:Tween 20 40:2), “Up to 180 mg/1 g of solvent”; in data set [1] (Test 17, MEK:Methanol 40:10) it was “Up to 155 mg/1 g of solvent”; in data set [1] (Test 18, MEK:Methanol:MCT 40:10:3), “Up to 235 mg/1 g of solvent”. Also, the Solubility entry in data set [1] (Test 19, MEK:Water 40:4.5) is listed as “insoluble”; in data set [1] (Test 20, MEK:Methanol:Labrafil 2125CCS:Tween 20 40:10:4:4), “Up to 317 mg/1 g of solvent”. Further, the “permeation of Maropitant solutions/suspensions at different pH” value in data set [2] (Maropitant/citric acid pH 4.24, 5.22, 6.22 and phosphate citrate buffer pH 8.0, FIG. 9) is reported as “acidic environment promotes Maropitant permeation”. For the same compound, the “Maropitant permeability of films with versus without citric acid” value in data set [2] (oral films with and without citric acid) was “improved”.
As for `CN1CC(=O)N2[C@H](c3ccc4c(c3)OCO4)c3[nH]c4ccccc4c3C[C@@H]2C1=O` [Tadalafil], the solubility in water result in data set [3] is “practically insoluble”.

These data come from patent US20240245603A1, “HIGH LOADING ORAL FILM FORMULATION” (INTELGENX CORP., priority 2021, published 2024).
